Experimental findings from ChEMBL document CHEMBL6134865, “Rational Design of Methylene Blue-Raloxifene Conjugates for Efficient Breast Tumor Elimination Triggered by ERα Degradation” (J Med Chem, 2025) are described below.

By pIC50 is commonly meant −log10 of the IC50, conventionally taken in molar units. As a reminder, the Cmax is the maximum level reached in the sampled fluid or tissue. Usually AUC(0-inf) stands for total exposure, with the tail of the curve extrapolated. A lower AUC(0-inf) goes with low exposure. For orientation: Tmax means the time from dosing to the highest level. For orientation: Vd means the apparent volume that relates the amount in the body to the concentration in plasma or blood. A higher Vd goes with wide distribution into tissue.

pIC50: −log10 of the molar value. Calls of active or inactive are those of the source. The calls are words filed in the database; no cut-off is given here.

Series [1] in a line: Photothermal effect of compound in water assessed as increase in solution temperature at 0.5 to 10 uM in presence of 660 nm 0.4 W/cm2 light irradiation. In kind it is functional. The settings on record: dose 0.5-10 µM, time <= 5.0 min.
Series [2] deals with MCF7. As to the kind of experiment: cells. The settings on record: Homo sapiens, MCF7, 48 h.
Description: Antiproliferative activity against human MCF7 cells assessed as inhibition of cell proliferation incubated for 48 hrs by MTT assay
Series [3] deals with MCF7. As to the kind of experiment: cells. The conditions noted are these: Homo sapiens, MCF7, light or radiation study.
Description: Antiproliferative activity against human MCF7 cells assessed as inhibition of cell proliferation incubated for 48 hrs with 660 nm 0.4 W/cm2 light irradiation for 1 min at 6th hr of incubation time by MTT assay
For series [4], the system named is MCF7. As to the kind of experiment: cells. The settings on record: Homo sapiens, MCF7, light or radiation study. This is another data set of the same source.
Description: Antiproliferative activity against human MCF7 cells assessed as inhibition of cell proliferation incubated for 48 hrs with 660 nm 0.4 W/cm2 light irradiation for 4 min at 6th hr of incubation time by MTT assay
Series [5] relates to MCF7. As to the kind of experiment: Induction of ROS generation in human MCF7 cells assessed as cell percentage with elevated ROS at 1 uM incubated for 6 hrs followed by irradiation with 660 nm 0.4 W/cm2 light for 2 min by DCFH-DA probe based flow cytometric analysis (reference value: 0.2 %). In kind it is functional. The conditions noted are these: time 362 min, 6.033 h. Background: A flow cytometer gives signals particle by particle.

Series [6] in a line: Photothermal effect of compound in water assessed as increase in solution temperature measured up to 5 mins in presence of 660 nm 0.4 W/cm2 light irradiation. In kind it is functional. The conditions noted are these: dose 0.5-10 µM.
Series [7] is described as follows: Induction of ROS generation in water at 1 uM irradiated with 660 nm 0.4 W/cm2 light up to 180 sec by DCFH probe based fluorescence spectra analysis. In kind it is functional.
Series [8] relates to MCF7. As to the kind of experiment: cells. The settings on record: Homo sapiens, MCF7, light or radiation study. The source holds these as a separate data set.
Description: Antiproliferative activity against human MCF7 cells assessed as inhibition of cell proliferation incubated for 48 hrs with 660 nm 0.4 W/cm2 light irradiation for 5 min at 6th hr of incubation time by MTT assay
Series [9] has as its system MCF7. Nature of the series: cells. The settings on record: Homo sapiens, MCF7, light or radiation study. This is another data set of the same source.
Description: Antiproliferative activity against human MCF7 cells assessed as inhibition of cell proliferation incubated for 48 hrs with 660 nm 0.4 W/cm2 light irradiation for 3 min at 6th hr of incubation time by MTT assay
Series [10] can be described thus: Induction of ROS generation in water assessed as decrease in ABDA absorption peak at 5 uM irradiated with 660 nm 0.4 W/cm2 light up to 5 mins by ABDA probe based UV-vis absorption spectra analysis. In kind it is functional.
In series [11] the test system is MCF7. Nature of the series: cells. The settings on record: Homo sapiens, MCF7, light or radiation study. The source holds these as a separate data set.
Description: Antiproliferative activity against human MCF7 cells assessed as inhibition of cell proliferation incubated for 48 hrs with 660 nm 0.4 W/cm2 light irradiation for 2 min at 6th hr of incubation time by MTT assay
The nature of series [12]: in vivo. The settings on record: Sprague-Dawley, rat, po, 15 mg/kg.
Description: Cmax in Sprague-Dawley rat at 15 mg/kg, po administered via gavage and measured after 0.5 to 168 hrs by LC-MS analysis
A short description of series [13]: in vivo. The settings on record: Sprague-Dawley, rat, po, 15 mg/kg. This is another data set of the same source.
Description: AUC (0 to infinity) in Sprague-Dawley rat at 15 mg/kg, po administered via gavage and measured after 0.5 to 168 hrs by LC-MS analysis
Series [14] can be described thus: in vivo. The conditions noted are these: Sprague-Dawley, rat, iv, 5 mg/kg.
Description: Cmax in Sprague-Dawley rat at 5 mg/kg, iv measured after 0.5 to 168 hrs by LC-MS analysis
A short description of series [15]: in vivo. The conditions noted are these: Sprague-Dawley, rat, po, 15 mg/kg. The source holds these as a separate data set.
Description: Tmax in Sprague-Dawley rat at 15 mg/kg, po administered via gavage and measured after 0.5 to 168 hrs by LC-MS analysis
Series [16] can be described thus: in vivo. The conditions noted are these: Sprague-Dawley, rat, iv, 5 mg/kg. The source holds these as a separate data set.
Description: Volume of distribution at steady state in Sprague-Dawley rat at 5 mg/kg, iv measured after 0.5 to 168 hrs by LC-MS analysis
Series [17] can be described thus: in vivo. The conditions noted are these: Sprague-Dawley, rat, iv, 5 mg/kg. This is another data set of the same source.
Description: AUC (0 to infinity) in Sprague-Dawley rat at 5 mg/kg, iv measured after 0.5 to 168 hrs by LC-MS analysis
Series [18] in a line: Toxicity in female BALB/c mouse xenografted with human MCF7 cells assessed as change in AST level at 5 mg/kg, iv measured after 14 days. In kind it is organism-based. The conditions noted are these: in vivo, 336 h, time 14 day. On the technique in general: A xenograft is tissue or cells of one species grown in another, often human tumour cells in immunodeficient mice.
Series [19] is described as follows: Toxicity in female BALB/c mouse xenografted with human MCF7 cells assessed as change in ALT level at 5 mg/kg, iv measured after 14 days. In kind it is organism-based. The settings on record: in vivo, 336 h, time 14 day.
Series [20] concerns MCF7. As to the kind of experiment: Antitumor activity against human MCF7 cells xenografted in female BALB/c mouse model assessed as tumor growth inhibition at 5 mg/kg, iv measured after 14 days relative to control. In kind it is functional. The conditions noted are these: MCF7, 336 h, time 14 day, read-out: TGI.
Series [21] can be described thus: Toxicity in female BALB/c mouse xenografted with human MCF7 cells assessed as change in blood urea nitrogen level at 5 mg/kg, iv measured after 14 days. The conditions noted are these: in vivo, 336 h, time 14 day. In kind it is organism-based.
Series [22] can be described thus: Toxicity in female BALB/c mouse xenografted with human MCF7 cells assessed as change in body weight at 5 mg/kg, iv measured after 14 days. The settings on record: in vivo, 336 h, time 14 day. In kind it is organism-based.
Series [23] in a line: Toxicity in female BALB/c mouse xenografted with human MCF7 cells assessed as change in creatinine level at 5 mg/kg, iv measured after 14 days. In kind it is organism-based. The conditions noted are these: in vivo, 336 h, time 14 day.

On to `CCN(CC)c1ccc2nc3c4ccccc4/c(=N\CCC(=O)NCCCOc4ccc(C(=O)c5c(-c6ccc(O)cc6)sc6cc(O)ccc56)cc4)cc-3sc2c1`, for which the Activity result was “Time-dependent-effect” in [1], 4.2% with MCF7 [5] and “Dose-dependent-effect” in [6]. Moreover, the pIC50 in the series on MCF7 [2] is < 4.00; in the series with MCF7 [3] it was 5.26; in the series on MCF7 [4], 5.87; in the series with MCF7 [8], 6.20; in the series with MCF7 [9], 5.75; with MCF7 [11], 5.41. Besides, the result in series [7] and in series [10] was Active.
The compound `O=C(c1ccc(OCCN2CCCCC2)cc1)c1c(-c2ccc(O)cc2)sc2cc(O)ccc12` [RALOXIFENE] had a pIC50 with MCF7 [2] of 5.17.
Regarding `CCN(CC)c1ccc2nc3c4ccccc4/c(=N\CCCCC(=O)NCCCOc4ccc(C(=O)c5c(-c6ccc(O)cc6)sc6cc(O)ccc56)cc4)cc-3sc2c1`, the pIC50 with MCF7 [2] is < 4.00; in the series with MCF7 [3] it was 5.33; in the series with MCF7 [4] it was 6.42; in the series on MCF7 [8], 6.48; in the series on MCF7 [9], 6.14; in the series with MCF7 [11] it was 6.03. In the series with MCF7 [5], the Activity was 4.8%. For the same compound, the outcome in [7] and in [10] was Active.
Consider `CN(C)c1ccc2nc3ccc(N(C)C)cc3[s+]c2c1` [METHYLENE BLUE ANHYDROUS], for which the pIC50 in the series with MCF7 [2] was < 4.00; in the series on MCF7 [3], < 4.00; in the series on MCF7 [4], 5.17; in the series on MCF7 [8] it was 5.26; in the series on MCF7 [9], 4.85; in the series on MCF7 [11], < 4.00.
For the compound `CC/C(=C(\c1ccccc1)c1ccc(OCCN(C)C)cc1)c1ccccc1` [TAMOXIFEN], the results for the Cmax in “in vivo [12]” and in “in vivo [14]” were 11.7 ng/mL and 15.9 ng/mL, respectively. The total exposure AUC(0-inf) in the series “in vivo [13]” worked out at 311 ng·h/mL; in the series “in vivo [17]”, 295 ng·h/mL. In the series “in vivo [15]”, the time to peak (Tmax) came out at 16 h. In the series “in vivo [16]”, this compound had a Vd of 221 L/kg.
Take `C[C@]12CC[C@@H]3c4ccc(O)cc4C[C@@H](CCCCCCCCC[S+]([O-])CCCC(F)(F)C(F)(F)F)[C@H]3[C@@H]1CC[C@@H]2O` (some centres undefined) [FULVESTRANT]: the Activity entry in [18], in [19], in series [21], in series [22] and in series [23] was “Non-toxic” in each case. In addition, the inhibition in vivo at 5 mg/kg with MCF7 [20] was determined as 95.4%.
